Test system: vasopressor response of angiotensin II
Assay: AII Challenge: antagonism of angiotensin II vasopressor response;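 for Response Average Change: post-dose Angiotensin II-evoked rise in systolic blood pressure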
Assay type: in vivo
Details: for inhibition in vivo at 3 mg/kg / inhibition in vivo at 5 mg/kg: Rattus norvegicus; for inhibition in vivo at 3 mg/kg: iv; for inhibition in vivo at 5 mg/kg: po
Summary of the method: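 Conscious male SHR (16-20 weeks) with aortic and caval cannulae received angiotensin II at 0.05 and 0.1 ug/kg i.v. before and 30-300 min after compound dosing (i.v., i.p. or oral). Blockade is expressed as % of each rat's predose rise in systolic pressure.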

[1] = 3 mg/kg I.V., AII 0.05 mcg/kg IV, 30 min post dose
[2] = 3 mg/kg I.V., AII 0.05 mcg/kg IV, 60 min post dose
[3] = 3 mg/kg I.V., AII 0.05 mcg/kg IV, 90 min post dose
[4] = 3 mg/kg I.V., AII 0.05 mcg/kg IV, 120 min post dose
[5] = 3 mg/kg I.V., AII 0.05 mcg/kg IV, 180 min post dose
[6] = 3 mg/kg I.V., AII 0.1 mcg/kg IV, 30 min post dose
[7] = 3 mg/kg I.V., AII 0.1 mcg/kg IV, 60 min post dose
[8] = 3 mg/kg I.V., AII 0.1 mcg/kg IV, 90 min post dose
[9] = 3 mg/kg I.V., AII 0.1 mcg/kg IV, 120 min post dose
[10] = 3 mg/kg I.V., AII 0.1 mcg/kg IV, 180 min post dose
[11] = 0.5 h, 3 mg/kg I.V., AII 0.05 mcg/kg IV, 30 min post dose
[12] = 0.5 h, 3 mg/kg I.V., AII 0.1 mcg/kg IV, 30 min post dose
[13] = 1 h, 3 mg/kg I.V., AII 0.05 mcg/kg IV, 60 min post dose
[14] = 1 h, 3 mg/kg I.V., AII 0.1 mcg/kg IV, 60 min post dose
[15] = 2 h, 3 mg/kg I.V., AII 0.05 mcg/kg IV, 120 min post dose
[16] = 2 h, 3 mg/kg I.V., AII 0.1 mcg/kg IV, 120 min post dose
[17] = 3 h, 3 mg/kg I.V., AII 0.05 mcg/kg IV, 180 min post dose
[18] = 3 h, 3 mg/kg I.V., AII 0.1 mcg/kg IV, 180 min post dose
[19] = […], 3 mg/kg I.V., AII 0.05 mcg/kg IV, 90 min post dose
[20] = […], 3 mg/kg I.V., AII 0.1 mcg/kg IV, 90 min post dose

| SMILES | Response Average Change [1] | Response Average Change [2] | Response Average Change [3] | Response Average Change [4] | Response Average Change [5] | Response Average Change [6] | Response Average Change [7] | Response Average Change [8] | Response Average Change [9] | Response Average Change [10] | inhibition in vivo at 3 mg/kg [11] | inhibition in vivo at 3 mg/kg [12] | inhibition in vivo at 3 mg/kg [13] | inhibition in vivo at 3 mg/kg [14] | inhibition in vivo at 3 mg/kg [15] | inhibition in vivo at 3 mg/kg [16] | inhibition in vivo at 3 mg/kg [17] | inhibition in vivo at 3 mg/kg [18] | inhibition in vivo at 3 mg/kg [19] | inhibition in vivo at 3 mg/kg [20] | other results |
| --- | --- | --- | --- | --- | --- | --- | --- | --- | --- | --- | --- | --- | --- | --- | --- | --- | --- | --- | --- | --- | --- |
| CCCCc1nc2ccc([C@@H]3C[C@H]4CCC(C)(C)N4O3)cc2c(=O)n1Cc1ccc(-c2ccccc2-c2nnn[nH]2)cc1 (relative stereo) [Example 61, (Cis)-2-Butyl-6-(hexahydro-6,6-dimethylpyrrolo[1,2-b]isoxazol-2-yl)-3-[[2'-(1H-tetrazol-5-yl][1,1'-biphenyl]-4-yl]methyl]-4(3H)-quinazolinone] | 7.5 mmHg | 10 mmHg | 6 mmHg | 13.5 mmHg | 15 mmHg | 7.5 mmHg | 12.5 mmHg | 3.5 mmHg | 15 mmHg | 16 mmHg | 83% | 84% | 78% | 73% | 70% | 67% | 67% | 65% | 87% | 92% | Response Average Change (5 mg/kg P.O., AII 0.05 mcg/kg IV, 30 min post dose): 27.5 mmHg; Response Average Change (5 mg/kg P.O., AII 0.05 mcg/kg IV, 60 min post dose): 29 mmHg; Response Average Change (5 mg/kg P.O., AII 0.05 mcg/kg IV, 90 min post dose): 30 mmHg; Response Average Change (5 mg/kg P.O., AII 0.05 mcg/kg IV, 120 min post dose): 22.5 mmHg; Response Average Change (5 mg/kg P.O., AII 0.05 mcg/kg IV, 180 min post dose): 35 mmHg; Response Average Change (5 mg/kg P.O., AII 0.1 mcg/kg IV, 30 min post dose): 32.5 mmHg; Response Average Change (5 mg/kg P.O., AII 0.1 mcg/kg IV, 60 min post dose): 35 mmHg; Response Average Change (5 mg/kg P.O., AII 0.1 mcg/kg IV, 90 min post dose): 29 mmHg; Response Average Change (5 mg/kg P.O., AII 0.1 mcg/kg IV, 120 min post dose): 30 mmHg; Response Average Change (5 mg/kg P.O., AII 0.1 mcg/kg IV, 180 min post dose): 35 mmHg; inhibition in vivo at 5 mg/kg (0.5 h, 5 mg/kg P.O., AII 0.05 mcg/kg IV, 30 min post dose): 40%; inhibition in vivo at 5 mg/kg (0.5 h, 5 mg/kg P.O., AII 0.1 mcg/kg IV, 30 min post dose): 31%; inhibition in vivo at 5 mg/kg (1 h, 5 mg/kg P.O., AII 0.05 mcg/kg IV, 60 min post dose): 37%; inhibition in vivo at 5 mg/kg (1 h, 5 mg/kg P.O., AII 0.1 mcg/kg IV, 60 min post dose): 26%; inhibition in vivo at 5 mg/kg (2 h, 5 mg/kg P.O., AII 0.05 mcg/kg IV, 120 min post dose): 51%; inhibition in vivo at 5 mg/kg (2 h, 5 mg/kg P.O., AII 0.1 mcg/kg IV, 120 min post dose): 36%; inhibition in vivo at 5 mg/kg (3 h, 5 mg/kg P.O., AII 0.05 mcg/kg IV, 180 min post dose): 24%; inhibition in vivo at 5 mg/kg (3 h, 5 mg/kg P.O., AII 0.1 mcg/kg IV, 180 min post dose): 26%; inhibition in vivo at 5 mg/kg ([…], 5 mg/kg P.O., AII 0.05 mcg/kg IV, 90 min post dose): 35%; inhibition in vivo at 5 mg/kg ([…], 5 mg/kg P.O., AII 0.1 mcg/kg IV, 90 min post dose): 38% |
| CCCCc1nc2ccc([C@H]3C[C@]4(C)CCCCN4O3)cc2c(=O)n1Cc1ccc(-c2ccccc2-c2nnn[nH]2)cc1 (relative stereo) [Example 65] | 2.5 mmHg | 15.5 mmHg | 11 mmHg | 8 mmHg | 25 mmHg | 2.5 mmHg | 11 mmHg | 16.5 mmHg | 12.5 mmHg | 17.5 mmHg | 95% | 95% | 66% | 77% | 82% | 74% | 45% | 64% | 76% | 66% |  |
